The record followed here is US10766940B2, “Brain penetrant amylin receptor based peptides for Alzheimer's disease” (The Governors of the University of Alberta, priority 2016, dated 2020).

Positions of bridges follow the written chain, without caps; N, C: chain ends. Non-standard residues stand in square brackets, D forms with d. Residues, ends and D or L forms follow the SMILES beside them. No end group written: not given here. Cy5.5 = near-infrared dye, attached as Cy5.5-NHS ester; βAla = NCCC(=O)O

One may read the half-life as the time in which the quantity being followed falls by half. The low end stands for fast loss, the high end for slow loss.

A short description of data set [1]: Peptide stability in human serum. In kind it is in vitro ADME. To be noted: 37° C. How it is done: For the serum stability experiments, human serum or liver homogenate (250 μL) were added to DMEM medium (650 μL) in a 1.5 mL Eppendorf tube to mimic a biological system. The temperature was equilibrated at 37±1° C. for 30 minutes before adding 100 μL of the peptide stock solution (1 mM solution in 10% DMSO in sterile water). An aliquot of reaction solution (100 μL) was removed from the sample at different time points 0, 3, 5, 10, 20, and 30 minutes added to pure methanol (300 μL) for precipitation of the serum proteins present in the human serum proteins by centrifugation (10,000 rpm, 5 minutes). The clear supernatant was analyzed by reversed phase HPLC, and the appropriate fractions were collected for identification using MALDI-TOF. Proteolysis kinetics of the peptides was analyzed by following the decrease in the concentration of the intact peptide as a function of time. The t1/2 half-lives of peptides were calculated.

A short description of data set [2]: In vivo and ex vivo NIRF brain imaging after ip injection, wild-type mice. To be noted: for ability to penetrate the blood brain barrier: single ip administration, wild-type mice, NIR fluorescence. How it is done:
For in vivo imaging experiments, 6-12 month-old TgCRND8, age-matched wild-type littermate, and heterozygous CTR knockdown mice (50% CTR expression level compared to wild type control mice and presumably with 50% AMY receptor expression level) were used (n=5 in each group). The animals were anesthetized with ketamine ip injection. The fur was shaved from the head and dorsal side of the body to avoid laser scattering caused by hair. […] Wild type mice injected with 200 μl saline were used as a background.
Images were acquired with a Kodak IS2000MM Image station (GE Healthcare Systems/ART Inc.), excitation filter 625/20 band pass, emission filter 700 W band pass, light source was 150 W quartz halogen lamp set to 100 (max). Images were captured with a CCD camera set to F stop=0, FOV=150, FP=0. Exposure time was 2 min per image for NIRF image and 1 s for visible image. To evaluate for fluorescence concentration, the region of interest was drawn around the brain region and analyzed using the Kodak ID 3.6 software and the mean fluorescence intensity was recorded.

The nature of data set [3]: In vivo pharmacokinetics and bio-distribution of cAC253. The protocol: There were 3 mice in each dose group. After 2 hours the mice were sacrificed to collect their brains which were imaged in a Kodak imager. […] The heart, liver, lung, spleen, intestine, stomach, kidney and brain were excised after perfusion with PBS, and kept in dry ice before Kodak imaging. Fluorescence was quantified, and analyzed as previously.

Data set [4] in a line: In vivo competition with unlabeled cAC253, ex vivo brain fluorescence. Set-up: species or system mouse. To be noted: 40 μg Cy5.5 cAC253 + 5-fold excess (200 μg) unlabeled cAC253 ip, 2 hr. The protocol:
Additionally, a competition in vivo experiment was also carried out. […] Brains were then extracted and scanned ex-vivo for fluorescence concentration. For ex vivo histological study, brains were excised and embedded in OCT, then sliced into 20-μm slices, co-stained with DAPI in mounting medium.

For data set [5] the following is noted: after ip injection, 2 h, brain homogenate fluorescence vs standard.
Data set [6] in a line: Lipophilicity, shake flask 1-octanol/water partition. Format: physicochemical. How it is done: Peptides hydrophobicity was determined using the shake flask method and 1-octanol/water partition coefficient (log Po/w) was determined. […] Peptide concentration (area) in both phases (1-octanol and water) were analyzed by RP-HPLC. The final log Po/w value was calculated by dividing the concentration (C) of the peptide in the two phases as presented by the area under the peak (partition coefficients=C1-octanol/Cwater).

The target of the next data set is T1, AMY1 (Homo sapiens, UniProt O60894+P30988).
T1 construct: expressed in transfected cells
As to the kind of experiment: Peptide array-cell binding assay, AMY1 transfected cells. To be noted: membrane screening AMY1-3 subtypes.

T1 sequence (P30988 25-474): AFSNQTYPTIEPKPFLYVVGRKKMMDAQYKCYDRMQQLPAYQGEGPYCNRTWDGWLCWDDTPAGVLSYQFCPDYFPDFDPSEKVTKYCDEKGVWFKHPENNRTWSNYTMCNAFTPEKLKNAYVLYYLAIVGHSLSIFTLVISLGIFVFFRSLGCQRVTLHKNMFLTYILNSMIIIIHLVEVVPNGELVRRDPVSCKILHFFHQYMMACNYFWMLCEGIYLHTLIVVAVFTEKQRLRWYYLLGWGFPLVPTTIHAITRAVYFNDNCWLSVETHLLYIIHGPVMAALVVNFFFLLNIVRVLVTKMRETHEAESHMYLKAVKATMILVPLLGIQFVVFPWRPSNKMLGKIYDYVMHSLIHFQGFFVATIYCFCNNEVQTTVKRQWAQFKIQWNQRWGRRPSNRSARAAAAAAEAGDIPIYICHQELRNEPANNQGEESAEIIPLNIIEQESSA
T1 sequence (O60894 27-148 partner): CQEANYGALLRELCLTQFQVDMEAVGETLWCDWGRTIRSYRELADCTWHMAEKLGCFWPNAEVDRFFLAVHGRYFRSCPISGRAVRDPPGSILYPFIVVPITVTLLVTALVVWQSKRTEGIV

With `CC(C)C[C@@H]1NC(=O)[C@H](N)CSSC[C@H](C(N)=O)NC(=O)[C@H](Cc2ccc(O)cc2)NC(=O)[C@H]([C@@H](C)O)NC(=O)[C@H](CC(N)=O)NC(=O)[C@H](CO)NC(=O)CNC(=O)[C@H]([C@@H](C)O)NC(=O)[C@H](CC(N)=O)NC(=O)[C@H]([C@@H](C)O)NC(=O)[C@H](CCCNC(=N)N)NC(=O)[C@@H]2CCCN2C(=O)[C@H](Cc2ccc(O)cc2)NC(=O)[C@H]([C@@H](C)O)NC(=O)[C@H](CCC(N)=O)NC(=O)[C@H](CC(C)C)NC(=O)[C@H](CCCNC(=N)N)NC(=O)[C@H](Cc2c[nH]cn2)NC(=O)[C@H](CC(C)C)NC(=O)[C@H](CCC(=O)O)NC(=O)[C@H](CCC(N)=O)NC(=O)[C@H](CO)NC(=O)[C@H](CC(C)C)NC(=O)[C@H](CCCNC(=N)N)NC(=O)CNC1=O` [cAC253] (H-[dC]LGRLSQELHRLQTYPRTNTGSNTY[dC]-NH2; disulfide 1-26; N-terminus assumed), the “stability in human serum relative to AC253” value is given as “seven-fold increase” in data set [1] and 7 times in data set [1] (listed as Cyclic-AC253). In data set [1] (human, serum, RP-HPLC of intact peptide), this molecule gave a half-life of 7 h. In addition, in data set [2] (2 h post ip injection, 0.1 mmol in 200 μl saline), the “ex-vivo brain fluorescence signal relative to saline injection” value came to 2.8 fold. The “further increase of brain fluorescence level at 6 h” value in data set [2] (6 h post-ip injection, 0.01 mmol) is reported as 20%. Also, the “ability to penetrate the blood brain barrier” value in data set [2] is “penetrate the blood brain barrier”. Further, the bio-distribution in organs result in data set [3] (2 h after injecting 20 mg/kg) is “mainly observed in the eliminating organs such as kidneys, liver and in the injection sites (intestine)”. Moreover, the “reduction of brain fluorescence signal by excess unlabeled cAC253” value in data set [4] turned out to be 75%. Further, in data set [5], the brain concentration fell in the range of 10 to 100 nM. In addition, in data set [6] (1-octanol/water shake flask, read-out: log P), the logP is -1.05. This molecule also yielded a Partition coefficient in data set [6] (Table 2, 1-octanol/PBS shake flask) of 1.22.
For the molecule RLQTYPRTNTGS (RLQTYPRTNTGS-NH2) [R10], the “binding to AMY1 cells on peptide array (fluorescence)” value in the data set with AMY1 was “AMY1 specific peptide”.
On to `CC[C@H](C)[C@H](NC(=O)[C@H](C)NC(=O)[C@@H](N)Cc1c[nH]cn1)C(=O)N[C@@H](Cc1ccc(O)cc1)C(=O)N1CCC[C@H]1C(=O)N[C@@H](CCCNC(=N)N)C(=O)N[C@@H](Cc1c[nH]cn1)C(N)=O` [T7, HAIYPRH, reference compound], for which the “clearance from the brain at 6 h” value in data set [2] (mouse, in vivo, ip) is given as “rapid clearance from the brain”.
Consider `C[N+]1=C(C=CC=CC=C2N(CCCCCC(=O)ON3C(=O)CCC3=O)c3ccc4ccccc4c3C2(C)C)C(C)(C)c2c1ccc1ccccc21.[Cl-]` [Cy5 dye, Cyanine5.5 NHS ester dye, reference compound], for which the “ability to penetrate the blood brain barrier” value in data set [2] is “could not on its own cross the BBB”.
Regarding “Cy5-cAC253: cAC253 with extra β-alanine spacer, N-terminally labeled with near-infrared dye Cy5.5-NHS ester ({Cy5.5-βAla}-[dC]LGRLSQELHRLQTYPRTNTGSNTY[dC]-NH2; disulfide 1-26)”, the “half-life of brain fluorescence signal” value in data set [3] (mouse, in vivo, ip, 20 mg/kg) was 16 h.
